Data as given in patent US9107879B1, “Methods of increasing the cytotoxicity of chemotherapeutic agents with multisubstrate inhibitors of histone, protein-lys, polyamine acetylation, and polyamine metabolism” (Vanderbilt University, priority 2010, dated 2015).

What was measured:
H358 lung cancer cells = assay: [3H]-thymidine incorporation DNA synthesis assay; assay type: cell-based; conditions: data not shown
Method: (A) Structures of 1a, and the acetylated side chain of a lysine residue within the polypeptide chain of a protein targeted by the acetylating enzyme (R1 and R2 are the main chain elements on both sides of the lysyl residue). (B) [^3H]-thymidine incorporation into DNA of H358 cells pulsed for 6 hrs at three different time points after the addition of increasing concentrations of 1a, i.e., at 6-12 hrs (12 hr curve), at 18-24 hours (24 hr curve), or at 42-48 hrs (48 hr curve). Incorporation is represented as a percentage relative to control (untreated) cells. (C) Cell cycle analysis of propidium iodide-stained cells harvested at various times after addition of 50 μM 1a. % of cells in G1, S, and G2 represents the average of two independent profiles. (D) Western analysis of histone H3 lysine 9 acetylation, histone H3 lysine 56 acetylation, histone H3 lysine 9 methylation, and total histone H3, before “c” or at the indicated times after addition of 50 μM 1a. Each lane represents 60 μg cellular protein.
Control cells were left untreated. […] Control cells were left untreated.
Cells were either labeled immediately before treatment (starting DNA synthesis rate), or subjected to the indicated treatments and then pulsed on successive days until day 4. DNA synthesis is represented as the percent of starting DNA synthesis rate. Viability was determined for each treatment condition 24 hours post-start of treatment by the trypan blue exclusion assay, with percentages of viable cells indicated to the right of the graph.
H358 cells (2,000/well) in 96-well plates were treated with 1, 10 or 50 μM of spd-1a, spd-2a, spd-3a, spm3, or spm2 for 12 hours. Triplicate wells of cells were pulsed 6 hours with 0.5 μCi [^3H]-thymidine (NEN, Boston Mass.) post-start of drug treatment, and harvested onto filter paper using a Brandel Harvester and subjected to scintillation counting. Untreated cells were pulsed 0-6 hrs to establish the initial rate of incorporation.
Cells were plated in 96-well plates (2000 cells per well to insure conditions for exponential growth for untreated cells over the time course of the experiment) and exposed to the following treatments: 1a (50 μM); camptothecin (Sigma, St Louis, Mo. 5 nM, 18 hours); cisplatin (Platinol, obtained through local pharmacies, 2 μM, 1 hour 15 minutes), 5-fluorouracil (5FU, Adrucil™, obtained through local pharmacies, 2 μM, 1 hour 15 minutes), Taxotere (provided by the late Dr. Pierre Potier, 5 nM, 18 hours). UVC treatment (40 J/m^2) using a Stratalinker™, Stratagene, La Jolla, Calif.) was carried using medium lacking phenol red. At 0-6 hr, 18-24 hr (day 1), 42-48 hr […], 66-72 hr (day 3), and 90-96 hr (day 4) post-start of treatment, triplicate wells were incubated with 0.5 μCi [^3H]-thymidine (NEN, Boston Mass.), harvested onto filter paper, and subjected to scintillation counting. Trypan blue exclusion assays for cell membrane integrity were carried out as known in the art.
The present inventors used [^3H]-thymidine incorporation assays to examine DNA synthesis in H358 lung cancer cells in the presence of varying concentrations of 1a. Cells were pulsed for 6 hours with [^3H]-thymidine at three different time points after the addition of 1a (i.e., at 6-12 hours, at 18-24 hours, and at 42-48 hours). The incorporation of [^3H]-thymidine into DNA decreased with increasing concentrations of 1a at all three time points, with the maximal effect occurring with the 6-12 hour pulse (FIG. 2B).
We then used [^3H]-thymidine incorporation assays to examine DNA synthesis in H358 lung cancer cells in the presence of 1a alone, or together with an 18 hour exposure to the DNA damaging drug, camptothecin (CPT), a plant alkaloid from which an important class of topoisomerase I-targeted chemotherapeutic agents (Hycamtin [topotecan] and Camptosar [irinotecan]) has been derived (Garcia-Carbonero, et al, 2002, Clin Cancer Res 8: 641-61). […]

[1] = test system: endogenous HATs associated with solubilized chromatin; conditions: literature (Bandyopadhyay et al 2009; Parello et al. 1990); cited from earlier work
[2] = test system: MDA MB-435 breast cancer cells; assay: 72 hr viability assay; assay type: cell-based; conditions: DFMO 100 μM, 5FU 2 μM 18 hrs, doxorubicin 100 nM 18 hr
MCF7 breast cancer cells = conditions: single agent; DFMO 100 μM, 5FU 2 μM 18 hrs, doxorubicin 100 nM 18 hr; spd-2a with no siRNA or control siRNA
Method: (A) [^3H]-thymidine incorporation into DNA of H358 cells (left panel) or MCF-7 cells (right panel) during a 6 hour pulse ending at the indicated time points after initiation of treatment. Treatments were 50 μM 1a alone, 5 nM camptothecin alone (CPT, 18 hours), 50 μM 1a+5 nm CPT (18 hours). Control cells were left untreated. (B) 2-day 96-well viability assays of H358 cells (left panel) or MCF-7 cells (right panel) grown in presence of increasing concentrations of 1a (continuous), with or without an 18-hour treatment with 5 nM camptothecin (CPT). Cell viability, represented as a percent of untreated cell viability (i.e., no 1a, no CPT), was determined 2 days post-start of treatment by the MTS bioconversion assay (MTS=(3-(4,5′-dimethylthiazol-2-yl)-5-(3-carboxymethoxylphenyl-2-(4-sulfophenyl)-2H-tetrazolium salt). Each data point represents the average of triplicate wells. Assays were carried out under conditions such that untreated cells remained in exponential growth. (C) [^3H]-thymidine incorporation into DNA of H358 cells carried out as in part “A”. Treatment consisted of 1a alone (50 μM), or cisplatin (2 μM, 1 hour, 15 minutes) alone or together with 1a (Panel 1); or UVC (40 J/m^2), alone or together with 1a (Panel 2); or 5-fluorouracil (5FU, 2 μM, 18 hours) alone or together with 1a (Panel 3), or Taxotere™ (5 nM, 18 hours), alone or together with 1a (Panel 4). Control cells were left untreated. Symbols are as follows: (-◯-) untreated control; (-●-) 50 μM 1a, (-∇-) drug or UVC alone; (-▾-) combination 1a+drug or UVC.
Viability was measured 3 days after the start of treatment and is expressed as a percentage of control (untreated) cell viability.
Each point is average of triplicates.
Date of exp: 7-17-2010; located p.21 in Hat notebook: KB-2 (2010-2011).
Cells were plated in 96-well plates (3000 cells per well) and incubated 18 hours with or without 5 nM camptothecin (Sigma, St Louis, Mo.). Triplicate wells were then treated with varying doses of 1a (from 0-50 μM). Control cells received neither 1a nor camptothecin. 2-day viability was determined by the MTS assay as previously (Saadatmandi et al., 2002, Cancer Gene Therapy, 9: 830-9) and expressed as a percentage of control cell viability.
The present inventors carried out 96-well viability assays as we have previously described (Saadatmandi et al, Cancer Gene Therapy (2002) 9:830-9), in which MCF7 breast cancer cells were plated at 3000 cells per well. After overnight attachment, triplicate wells were treated with increasing doses of inhibitor 1a. Control wells were left untreated. After 3 days, cell viability was measured by the MTS assay, which measures the bioconversion of an uncolored substrate to a colored formazan derivative, and is proportional to cell number. […]

γ-H2A.X in H358 cells = assay: double strand break / gamma-H2A.X Western and co-immunoprecipitation; assay type: cell-based; conditions: 18 hours post-start; 1a 50 μM, 5FU 2 μM, cisplatin 2 μM, camptothecin 5 nM
Method: Also shown are controls for no treatment (“c” minus 1a) or treatment with 1a only (“c” plus 1a). Each lane represents 60 μg protein. […] Each lane represents 60 μg protein.
To measure DSB repair, cells were incubated for 1 hour with 10 μM camptothecin to induce DSBs, followed by incubation in the presence or absence of 50 μM 1a. At fixed times, histones were prepared by extraction in 0.2M H2SO4 as described previously and 50 μg extract was analyzed by 12% SDS-PAGE followed Western analysis as described previously, using rabbit polyclonal anti-γ-H2A.X [phosphor ser 139] (Novus Biologicals, Littleton, Colo.) or anti-H3 (Upstate Biotechnology, Inc, Lake Placid, N.Y.). Band intensities were quantitated digitally. To study acetylation of γ-H2A.X, we carried out co-immunoprecipitation analysis using 50 μg extract protein in immunoprecipitation buffer (10 mM sodium phosphate pH 7, 0.15 M NaCl, 0.1% SDS, 1% NP40, 1% sodium deoxycholate, aprotinin, 1 mM PMSF, complete protease inhibitors (Roche) using immobilized anti-acetyl-lysine (Millipore, Temecula, Calif.) in the immunoprecipitation step. The immunoprecipitated material was then analyzed as for Western analysis using anti γ-H2A.X.
Double strand breaks (DSBs) can be formed by a variety of DNA damaging agents, including camptothecin, cisplatin, 5FU, and UVC radiation (Avemann K, et al., 1988, Mol Cell Biol, 8: 3026-34; Bogdanov K V, et al. 1997, Br J Haematol, 98:869-72; Pavon M A, et al., Int J Cancer, 2008, 123:1068-79) implying that DSB repair may play a role in reducing their cellular toxicity. To examine how 1a treatment affects DSB repair in H358 cells we made use of the fact that the histone variant, H2A.X becomes phosphorylated at sites of double strand breaks (denoted γ-H2A.X), and can be detected by immunoblot analysis of acid extracted cells (Rogaku E P, et al., 1999, J Cell Biol, 146:905-16). […] Total H3 levels and H2A.X levels (control) are unaffected by these treatments (FIG. 4B). […]

DLD-1 colon cancer = assay: subcutaneous DLD-1 tumor model in nude mice; assay type: in vivo, nude mouse; conditions: DFMO alone, intratumoral, 2 mg/kg
Method: Tumors were initiated By subcutaneous implantation of […] DLD-1 colon cancer cells. […] Tumors were measured and volumes calculated as in FIG. 14.
Tumors were initiated by injecting 10^6 DLD-1 cells (from ATCC) per mouse (female nude mouse, 4-5 weeks, Harlan Labs) subcutaneously in the flank. (A) When the average tumor size reached 26 mm^3, animals were randomized into 2 groups (3 per group). One group was left untreated and served as the control (-●-). […] Tumors were measured bidirectionally at 2-3 day intervals and tumor volumes were calculated (v=½L×w^2). A paired t-test was used to evaluate the significance of the differences between the two groups of animals. […] (B) Tumors were initiated as in part (A). When tumors reached an average size of about 30 mm^3, animals were randomized into three groups of 2 animals each. The control group (-●-) received no treatment. The DFMO group (-▪-) received intratumoral injections of DFMO (2 mg/kg) on days 1, 7, 9 (5 PM), and 2, 8, 10 (9 AM, 5 PM). […] Tumors were measured and volumes calculated as in part (A). A paired t-test was used to evaluate the significance of the difference between the curves.

Structure (SMILES) | inhibitory activity against DNA synthesis in vivo, isomers compared (H358 lung cancer cells) | inhibitory activity against endogenous HAT [1] | 72 hr cell viability, single agent [2] | 3-day / 72 hr cell viability, single agent (MCF7 breast cancer cells) | γ-H2A.X level, single agent (γ-H2A.X in H358 cells) | tumor volume difference versus control (DLD-1 colon cancer)
CC(C)(COP(=O)(O)OP(=O)(O)OC[C@H]1O[C@@H](n2cnc3c(N)ncnc32)[C@H](O)[C@@H]1OP(=O)(O)O)[C@@H](O)C(=O)NCCC(=O)NCCSCC(=O)NCCCCNCCCN [1b, spermidine [N8]-CoA] | comparable inhibitory activity | comparable inhibitory activity |  |  |  | 
O=c1[nH]cc(F)c(=O)[nH]1 [5FU, 5-Fluorouracil] |  |  | minimal effects | minimal effects | weakly detectable | 
NCCC[C@](N)(C(=O)O)C(F)F [DFMO, α-difluoromethylornithine] |  |  | ineffective | ineffective |  | not significant
N.N.[Cl][Pt][Cl] [cisplatin, cis-diamminedichloro-platinium] |  |  |  |  | weakly detectable | 
COc1cccc2c1C(=O)c1c(O)c3c(c(O)c1C2=O)C[C@@](O)(C(=O)CO)C[C@@H]3O[C@H]1C[C@H](N)[C@H](O)[C@H](C)O1 [doxorubicin] |  |  | minimal effects | minimal effects |  | 
